Experimental data published in ChEMBL document CHEMBL5029193, “Design of Coibamide A Mimetics with Improved Cellular Bioactivity” (ACS Med Chem Lett, 2022).
Where a SMILES comes first, the peptide text is derived from it. Bridges are numbered along the chain shown (N, C = ends). [ ]: non-standard residue; d: D form. The star is where a group is joined. Bip = N[C@@H](Cc1ccc(-c2ccccc2)cc1)C(=O)O; dNMeaIle = CC[C@H](C)[C@@H](NC)C(=O)O; NMe2Val = CC(C)[C@@H](C(=O)*)N(C)C; NMeLys(Me) = CNCCCC[C@H](NC)C(=O)O; NMeI = CC[C@H](C)[C@H](NC)C(=O)O; NMeT = CN[C@H](C(=O)O)[C@@H](C)O; 2Pal = N[C@@H](Cc1ccccn1)C(=O)O; 3Pal = N[C@@H](Cc1cccnc1)C(=O)O; 4Pal = N[C@@H](Cc1ccncc1)C(=O)O; NMeL = CN[C@@H](CC(C)C)C(=O)O; NMeOrn = CN[C@@H](CCCN)C(=O)O; dNMeOrn = CN[C@H](CCCN)C(=O)O; dHiv = CC(C)[C@@H](O)C(=O)O; NMeS = CN[C@@H](CO)C(=O)O; NMeA = CN[C@@H](C)C(=O)O; dNMeA = CN[C@H](C)C(=O)O

System: A549
Experiment: Cytotoxicity against human A549 cells assessed as cell growth inhibition incubated for 72 hrs by MTS assay
Assay type: functional, cell-based
Conditions: A549, 72 h

CC[C@H](C)[C@H]1C(=O)N[C@@H](C)C(=O)N(C)[C@@H](CC(C)C)C(=O)N[C@@H](Cc2ccc(-c3ccccc3)cc2)C(=O)N(C)[C@H](C)C(=O)O[C@H](C)[C@H](N(C)C(=O)[C@H](CC(C)C)N(C)C(=O)[C@H](COC)N(C)C(=O)[C@H](OC(=O)[C@H](C(C)C)N(C)C)C(C)C)C(=O)N(C)[C@@H](COC)C(=O)N1C (NMe2Val-[dHiv][NMeS](Me)[NMeL][NMeT][NMeS](Me)[NMeI]A[NMeL][Bip][dNMeA]; ester 4-C)
IC50: 0.00011 µM

CC[C@H](C)[C@@H]1C(=O)N[C@@H](C)C(=O)N(C)[C@@H](CC(C)C)C(=O)N[C@@H](Cc2ccc(OC)cc2)C(=O)N(C)CCCC[C@H](N(C)C(=O)[C@H](CC(C)C)N(C)C(=O)[C@H](C)N(C)C(=O)[C@H](OC(=O)[C@H](C(C)C)N(C)C)C(C)C)C(=O)N(C)[C@@H](C)C(=O)N1C (NMe2Val-[dHiv][NMeA][NMeL][NMeLys(Me)][NMeA][dNMeaIle]A[NMeL]Y(Me); lactam 4-C)
IC50: > 10 µM

CC[C@H](C)[C@H]1C(=O)N[C@@H](C)C(=O)N(C)[C@@H](CC(C)C)C(=O)N[C@@H](Cc2ccccn2)C(=O)N(C)CCCC[C@H](N(C)C(=O)[C@H](CC(C)C)N(C)C(=O)[C@H](C)N(C)C(=O)[C@H](OC(=O)[C@H](C(C)C)N(C)C)C(C)C)C(=O)N(C)[C@@H](C)C(=O)N1C (NMe2Val-[dHiv][NMeA][NMeL][NMeLys(Me)][NMeA][NMeI]A[NMeL][2Pal]; lactam 4-C)
IC50: > 10 µM

CC[C@H](C)[C@H]1C(=O)N[C@@H](C)C(=O)N(C)[C@@H](CC(C)C)C(=O)N[C@@H](Cc2cccnc2)C(=O)N(C)CCCC[C@H](N(C)C(=O)[C@H](CC(C)C)N(C)C(=O)[C@H](C)N(C)C(=O)[C@H](OC(=O)[C@H](C(C)C)N(C)C)C(C)C)C(=O)N(C)[C@@H](C)C(=O)N1C (NMe2Val-[dHiv][NMeA][NMeL][NMeLys(Me)][NMeA][NMeI]A[NMeL][3Pal]; lactam 4-C)
IC50: > 10 µM

CC[C@H](C)[C@@H]1NC(=O)[C@H](C)N(C)C(=O)[C@@H](N(C)C(=O)[C@H](CC(C)C)N(C)C(=O)[C@H](C)N(C)C(=O)[C@H](OC(=O)[C@H](C(C)C)N(C)C)C(C)C)CCCCN(C)C(=O)[C@H](Cc2ccc(OC)cc2)NC(=O)[C@H](CC(C)C)N(C)C(=O)[C@H](C)NC1=O (NMe2Val-[dHiv][NMeA][NMeL][NMeLys(Me)][NMeA]IA[NMeL]Y(Me); lactam 4-C)
IC50: > 10 µM

CC[C@H](C)[C@H]1C(=O)N[C@@H](C)C(=O)N(C)[C@@H](CC(C)C)C(=O)N[C@@H](Cc2ccc(OC)cc2)C(=O)NCCC[C@@H](N(C)C(=O)[C@H](CC(C)C)N(C)C(=O)[C@H](C)N(C)C(=O)[C@H](OC(=O)[C@H](C(C)C)N(C)C)C(C)C)C(=O)N(C)[C@@H](C)C(=O)N1C (NMe2Val-[dHiv][NMeA][NMeL][dNMeOrn][NMeA][NMeI]A[NMeL]Y(Me); lactam 4-C)
IC50: > 10 µM

CC[C@H](C)[C@H]1C(=O)N[C@@H](C)C(=O)N(C)[C@@H](CC(C)C)C(=O)N[C@@H](Cc2ccc(OC)cc2)C(=O)NCCC[C@H](N(C)C(=O)[C@H](CC(C)C)N(C)C(=O)[C@H](C)N(C)C(=O)[C@H](OC(=O)[C@H](C(C)C)N(C)C)C(C)C)C(=O)N(C)[C@@H](C)C(=O)N1C (NMe2Val-[dHiv][NMeA][NMeL][NMeOrn][NMeA][NMeI]A[NMeL]Y(Me); lactam 4-C)
IC50: > 10 µM

CC[C@H](C)[C@H]1C(=O)N[C@@H](C)C(=O)N(C)[C@@H](CC(C)C)C(=O)N[C@H](Cc2ccc(OC)cc2)C(=O)N(C)CCCC[C@H](N(C)C(=O)[C@H](CC(C)C)N(C)C(=O)[C@H](C)N(C)C(=O)[C@H](OC(=O)[C@H](C(C)C)N(C)C)C(C)C)C(=O)N(C)[C@@H](C)C(=O)N1C (NMe2Val-[dHiv][NMeA][NMeL][NMeLys(Me)][NMeA][NMeI]A[NMeL][dY](Me); lactam 4-C)
IC50: > 10 µM

CC[C@H](C)[C@H]1C(=O)N[C@@H](C)C(=O)N(C)[C@@H](CC(C)C)C(=O)N[C@@H](Cc2ccc(OC)cc2)C(=O)N(C)CCCC[C@H](N(C)C(=O)[C@H](CC(C)C)N(C)C(=O)[C@H](C)N(C)C(=O)[C@H](OC(=O)[C@H](C(C)C)N(C)C)C(C)C)C(=O)N(C)[C@H](C)C(=O)N1C (NMe2Val-[dHiv][NMeA][NMeL][NMeLys(Me)][dNMeA][NMeI]A[NMeL]Y(Me); lactam 4-C)
IC50: > 10 µM

CC[C@H](C)[C@H]1C(=O)N[C@H](C)C(=O)N(C)[C@@H](CC(C)C)C(=O)N[C@@H](Cc2ccc(OC)cc2)C(=O)N(C)CCCC[C@H](N(C)C(=O)[C@H](CC(C)C)N(C)C(=O)[C@H](C)N(C)C(=O)[C@H](OC(=O)[C@H](C(C)C)N(C)C)C(C)C)C(=O)N(C)[C@@H](C)C(=O)N1C (NMe2Val-[dHiv][NMeA][NMeL][NMeLys(Me)][NMeA][NMeI][dA][NMeL]Y(Me); lactam 4-C)
IC50: > 10 µM

CC[C@H](C)[C@H]1C(=O)N[C@@H](C)C(=O)N(C)[C@@H](CC(C)C)C(=O)N[C@@H](Cc2ccncc2)C(=O)N(C)CCCC[C@H](N(C)C(=O)[C@H](CC(C)C)N(C)C(=O)[C@H](C)N(C)C(=O)[C@H](OC(=O)[C@H](C(C)C)N(C)C)C(C)C)C(=O)N(C)[C@@H](C)C(=O)N1C (NMe2Val-[dHiv][NMeA][NMeL][NMeLys(Me)][NMeA][NMeI]A[NMeL][4Pal]; lactam 4-C)
IC50: > 10 µM

CC[C@H](C)[C@H]1C(=O)N[C@@H](C)C(=O)N(C)[C@@H](CC(C)C)C(=O)N[C@@H](Cc2ccc(OC)cc2)C(=O)N(C)CCCC[C@H](N(C)C(=O)[C@H](CC(C)C)NC(=O)[C@H](C)N(C)C(=O)[C@H](OC(=O)[C@H](C(C)C)N(C)C)C(C)C)C(=O)N(C)[C@@H](C)C(=O)N1C (NMe2Val-[dHiv][NMeA]L[NMeLys(Me)][NMeA][NMeI]A[NMeL]Y(Me); lactam 4-C)
IC50: 3.4 µM
